Results: patent US6949648B2, “Condensed pyrazole derivatives, process for producing the same and use thereof” (Takeda Pharmaceutical Company Limited, priority 2000, dated 2005)
Structures can show the parent of a compound that is named as a salt.

Legend:
OVA-specific IgE = experiment: Effect on antibody production of ovalbumin-sensitized mice: IgE; format: in vivo, BALB/c mouse; details: Mus musculus, po, 264 h; 30 mg/kg b.w. orally, 5 days a week during 9-day period; serum 11 days after first sensitization, ELISA; read-out: Suppression Rate (%) IgE
Protocol: (§1) Effect on Antibody Production of Mice Sensitized by Controlled-Release Ovalbumin
(§2) A male BALB/c mouse (Charles River) of 7 weeks old was sensitized by intraabdominal administration, twice at an interval of a week, of a mixture of 10 μg/mouse of ovalbumin (OVA; albumin chicken egg grade III; Sigma Chemical) and 1 mg of aluminum hydroxide hydrate gel suspension (Alum; LSL Co. LTD.). After 11 days from the first sensitization, blood was collected from beneath eye under ether anesthesia, and the amount of OVA-specific IgE, IgG1 (Th2 type) and IgG2a (Th1 type) antibodies in the serum were determined by the ELISA method. A sample compound (30 mg/kg b.w.) was suspended in 0.4 ml of methylcellulose (MC), and the suspension was orally administered, 5 days a week during the 9-day period from the initiation day of sensitization to the day before the day of blood sample collection (1 Group, n=8 to 10).

[1] = test system: OVA-specific IgG2a (Th1 type); experiment: Effect on antibody production of ovalbumin-sensitized mice: IgG2a; format: in vivo, BALB/c mouse; details: Mus musculus, po, 264 h; 30 mg/kg b.w. orally, 5 days a week during 9-day period; serum 11 days after first sensitization, ELISA; read-out: Suppression Rate (%) IgG2a
Protocol: as §1, §2

melting point [°C] | SMILES | inhibition in vivo at 30 mg/kg (OVA-specific IgE) [%] | inhibition in vivo at 30 mg/kg [1] [%]
166 to 169 | CCOC(=O)c1cnc2c(c(C)nn2-c2ccccn2)c1O [Example 1-1, Ethyl 4-hydroxy-3-methyl-1-(2-pyridinyl)-1H-pyrazolo[3,4-b]pyridine-5-carboxylate] | 46.3 | 17.8
 | Cc1nn(-c2ccccn2)c2ncc(C(=O)O)c(O)c12 [Example 1-2, 4-Hydroxy-3-methyl-1-(2-pyridinyl)-1H-pyrazolo[3,4-b]pyridine-5-carboxylic acid] | 29.2 | -67.9
 | Cc1nn(-c2ccccn2)c2nccc(O)c12 [Example 1-3, 3-Methyl-1-(2-pyridinyl)-1H-pyrazolo[3,4-b]pyridin-4-ol] | 19 | -39.5
198 to 199 | Cc1nn(-c2ccccn2)c2nc(-c3ccccc3)cc(O)c12 [Example 1-22, 3-Methyl-6-phenyl-1-(2-pyridinyl)-1H-pyrazolo[3,4-b]pyridin-4-ol] | 14 | -2.1
208 to 209 | Cc1nn(-c2ccccn2)c2nc(O)c(Cc3ccccc3)c(C)c12 [Example 1-25, 5-Benzyl-3,4-dimethyl-1-(2-pyridinyl)-1H-pyrazolo[3,4-b]pyridin-6-ol] | 33.9 | 16.5
 | Cc1nn(-c2ccccn2)c2nc3ccc(F)cc3c(Cl)c12 [Example 1-52, 4-Chloro-6-fluoro-3-methyl-1-(2-pyridinyl)-1H-pyrazolo[3,4-b]quinoline] | 41.1 | 39.9
 | Cc1nn(-c2ccccn2)c2[nH]c3ccc(F)cc3c(=O)c12 [Example 1-53, 6-Fluoro-3-methyl-1-(2-pyridinyl)-1,9-dihydro-4H-pyrazolo[3,4-b]quinolin-4-one] | 8 | 36.1
 | Cc1ccc(-n2nc(C)c3c(N)c4ccccc4nc32)nc1 [Example 1-54, 3-Methyl-1-(5-methyl-2-pyridinyl)-1H-pyrazolo[3,4-b]quinolin-4-ylamine] | 17.6 | -148
 | Cc1ccc(-n2nc(C)c3c(=O)c4ccccc4[nH]c32)nc1 [Example 1-55, 3-Methyl-1-(5-methyl-2-pyridinyl)-1,9-dihydro-4H-pyrazolo[3,4-b]quinolin-4-one hydrochloride] | 11.7 | 13.7
 | Cc1nn(-c2cccnc2)c2nc3ccccc3c(N)c12 [Example 1-63, 3-Methyl-1-(3-pyridinyl)-1H-pyrazolo[3,4-b]quinolin-4-ylamine dihydrochloride] | 25.2 | -5.8
 | Cc1nn(Cc2ccccn2)c2nc3ccccc3c(N)c12 [Example 1-68, 3-Methyl-1-(2-pyridinylmethyl)-1H-pyrazolo[3,4-b]quinolin-4-ylamine] | 31.6 | 31.7
240 to 241 | COC(=O)Cc1nn(-c2ccccn2)c2[nH]c3ccccc3c(=O)c12 [Example 2-176, Methyl 2-[4-oxo-1-(2-pyridinyl)-4,9-dihydro-1H-pyrazolo[3,4-b]quinolin-3-yl]acetate] |  | 
229 to 231 | O=C(O)Cc1nn(-c2ccccn2)c2[nH]c3ccccc3c(=O)c12 [Example 2-177, 2-[4-Oxo-1-(2-pyridinyl)-4,9-dihydro-1H-pyrazolo[3,4-b]quinolin-3-yl]acetic acid] |  | 
302 to 305 | NC(=O)Cc1nn(-c2ccccn2)c2[nH]c3ccccc3c(=O)c12 [Example 2-178, 2-[4-Oxo-1-(2-pyridinyl)-4,9-dihydro-1H-pyrazolo[3,4-b]quinolin-3-yl]acetamide] |  | 
164 to 166 | CCOC(=O)c1nn(-c2ccccn2)c2nc3ccccc3c(Cl)c12 [Example 2-179, Ethyl 4-chloro-1-(2-pyridinyl)-1H-pyrazolo[3,4-b]quinoline-3-carboxylate] |  | 
183 to 186 | CCOC(=O)c1nn(-c2ccccn2)c2[nH]c3ccccc3c(=O)c12 [Example 2-180, Ethyl 4-oxo-1-(2-pyridinyl)-4,9-dihydro-1H-pyrazolo[3,4-b]quinoline-3-carboxylate] |  | 
306 to 309 | O=C(O)c1nn(-c2ccccn2)c2[nH]c3ccccc3c(=O)c12 [Example 2-181, 4-Oxo-1-(2-pyridinyl)-4,9-dihydro-1H-pyrazolo[3,4-b]quinoline-3-carboxylic acid] |  | 
237 to 240 | O=c1c2ccccc2[nH]c2c1c(-c1ccccc1)nn2-c1ccccn1 [Example 2-182, 3-Phenyl-1-(2-pyridinyl)-1,9-dihydro-4H-pyrazolo[3,4-b]quinolin-4-one] |  | 
197 to 199 | COc1ccc(-c2nn(-c3ccccn3)c3[nH]c4ccccc4c(=O)c23)cc1 [Example 2-185, 3-(4-Methoxyphenyl)-1-(2-pyridinyl)-1,9-dihydro-4H-pyrazolo[3,4-b]quinolin-4-one] |  | 

melting point [°C] | SMILES | inhibition in vivo at 30 mg/kg (OVA-specific IgE) [%] | inhibition in vivo at 30 mg/kg [1] [%]
113 to 115 | Cc1nn(Cc2ccccn2)c2nc3ccccc3c(Cl)c12 [Example 2-186, 4-Chloro-3-methyl-1-(2-pyridinylmethyl)-1H-pyrazolo[3,4-b]quinoline] |  | 
166 to 168 | Cc1nn(Cc2ccccn2)c2nc3ccccc3c(N(C)C)c12 [Example 2-188, N,N-Dimethyl-N-[3-methyl-1-(2-pyridinylmethyl)-1H-pyrazolo[3,4-b]quinolin-4-yl]amine] |  | 
269 to 272 | Cc1nn(Cc2ccccn2)c2[nH]c3ccccc3c(=O)c12 [Example 2-189, 3-Methyl-1-(2-pyridinylmethyl)-1,9-dihydro-4H-pyrazolo[3,4-b]quinolin-4-one] |  | 
111 to 113 | COc1c2ccccc2nc2c1c(C)nn2Cc1ccccn1 [Example 2-190, 4-Methoxy-3-methyl-1-(2-pyridinylmethyl)-1H-pyrazolo[3,4-b]quinoline] |  | 
285 to 288 | Cc1nn(Cc2cccnc2)c2[nH]c3ccccc3c(=O)c12 [Example 2-191, 3-Methyl-1-(3-pyridinylmethyl)-1,9-dihydro-4H-pyrazolo[3,4-b]quinolin-4-one] |  | 
277 to 280 | Cc1nn(Cc2ccncc2)c2[nH]c3ccccc3c(=O)c12 [Example 2-192, 3-Methyl-1-(4-pyridinylmethyl)-1,9-dihydro-4H-pyrazolo[3,4-b]quinolin-4-one] |  | 
172 to 173 | Cc1nn(-c2ccccn2)c2[nH]c3c(c(=O)c12)CCCC3 [Example 2-194, 3-Methyl-1-(2-pyridinyl)-1,5,6,7,8,9-hexahydro-4H-pyrazolo[3,4-b]quinolin-4-one] |  | 
184 to 185 | Cc1nn(-c2ccccn2)c2[nH]c3c(c(=O)c12)CCCCC3 [Example 2-195, 3-Methyl-1-(2-pyridinyl)-5,6,7,8,9,10-hexahydrocyclohepta[b]pyrazolo[4,3-e]pyridin-4(1H)-one] |  | 
204 to 205 | Cc1nn(-c2ccccn2)c2nc3ncccc3c(Cl)c12 [Example 2-196, 4-Chloro-3-methyl-1-(2-pyridinyl)-1H-pyrazolo[3,4-b][1, 8]naphthyridine] |  | 
167 to 168 | Fc1cc2nc3c(cnn3-c3ccccn3)c(Cl)c2cc1F [Example 2-198, 4-Chloro-6,7-difluoro-1-(2-pyridinyl)-1H-pyrazolo[3,4-b]quinoline] |  | 
> 300 | O=c1c2cc(F)c(F)cc2[nH]c2c1cnn2-c1ccccn1 [Example 2-199, 6,7-Difluoro-1-(2-pyridinyl)-1,9-dihydro-4H-pyrazolo[3,4-b]quinolin-4-one] |  | 
160 to 161 | CCc1nn(-c2ccccn2)c2nc3cc(F)c(F)cc3c(Cl)c12 [Example 2-200, 4-Chloro-3-ethyl-6,7-difluoro-1-(2-pyridinyl)-1H-pyrazolo[3,4-b]quinoline] |  | 
247 to 248 | CCc1nn(-c2ccccn2)c2[nH]c3cc(F)c(F)cc3c(=O)c12 [Example 2-201, 3-Ethyl-6,7-difluoro-1-(2-pyridinyl)-1,9-dihydro-4H-pyrazolo[3,4-b]quinolin-4-one] |  | 
192 to 194 | Cc1nn(-c2cccnc2)c2nc3cc(F)c(F)cc3c(Cl)c12 [Example 2-202, 4-Chloro-6,7-difluoro-3-methyl-1-(3-pyridinyl)-1H-pyrazolo[3,4-b]quinoline] |  | 
226 to 228 | Cc1nn(-c2ccncc2)c2nc3cc(F)c(F)cc3c(Cl)c12 [Example 2-204, 4-Chloro-6,7-difluoro-3-methyl-1-(4-pyridinyl)-1H-pyrazolo[3,4-b]quinoline] |  | 
154 | Cc1cccc(-n2nc(C)c3c(Cl)c4ccccc4nc32)n1 [Example 2-207, 4-Chloro-3-methyl-1-(6-methyl-2-pyridinyl)-1H-pyrazolo[3,4-b]quinoline] |  | 
252 | Cc1cccc(-n2nc(C)c3c(=O)c4ccccc4[nH]c32)n1 [Example 2-208, 3-Methyl-1-(6-methyl-2-pyridinyl)-1,9-dihydro-4H-pyrazolo[3,4-b]quinolin-4-one] |  | 
301 to 302 | Cc1cccc(-n2nc(C)c3c(=O)c4cc(F)c(F)cc4[nH]c32)n1 [Example 2-209, 6,7-Difluoro-3-methyl-1-(6-methyl-2-pyridinyl)-1,9-dihydro-4H-pyrazolo[3,4-b]quinolin-4-one] |  | 
